From ChEMBL document CHEMBL4024707, “Using gene expression database to uncover biology functions of 1,4-disubstituted 1,2,3-triazole analogues synthesized via a copper (I)-catalyzed reaction” (Eur J Med Chem, 2017)

Key:
Type in all cases: functional
[1] = system: Hep 3B2; test: Induction of autophagy in human Hep3B cells at 40 uM after 24 hrs by acridine orange staining based flow cytometry (reference value: 1.1 to 1.3%)
[2] = system: Hep 3B2; test: Cell cycle arrest in human Hep3B cells assessed as accumulation at S phase at 40 uM after 72 hrs by propidium iodide staining based flow cytometry (reference value: 16.4 to 21.1%)
[3] = system: Hep 3B2; test: Cell cycle arrest in human Hep3B cells assessed as accumulation at G0/G1 phase at 2.5 uM after 48 hrs by propidium iodide staining based flow cytometry (reference value: 39.7 to 40.4%)
[4] = system: Hep 3B2; test: Cell cycle arrest in human Hep3B cells assessed as accumulation at G2/M phase at 40 uM after 48 hrs by propidium iodide staining based flow cytometry (reference value: 34.8 to […]%)

## COc1ccc(CNC(=O)Nc2ncc([N+](=O)[O-])s2)cc1
[1]
  Activity: 7.1%
[2]
  Activity: 13.5%
[3]
  Activity: 38.5%
[4]
  Activity: 41.6%
